Source: patent US10294229B2, “Heteroaryl substituted aminopyridine compounds” (BRISTOL-MYERS SQUIBB COMPANY, priority 2015, dated 2019)
Structures can show the parent of a compound that is named as a salt.

Assays:
[1] = tested on: Human whole blood stimulated with a TLR2 agonist (lipoteichoic acid), IL-6 levels; test: IRAK4 Whole Blood Assay; format: cell-based; settings: Homo sapiens, lipoteichoic acid 10 μg/mL
Outline: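 IL-6 was quantified by cytometric bead assay in supernatants of human blood (ACD-A) stimulated for 5 h with lipoteichoic acid at 10 μg/mL final. Compound exposure preceded stimulation for 60 min at 37 °C, 5% CO2.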

[2] = Caco-2 Permeability Assay; format: in vitro ADME; settings: human, Caco-2, test compound 3 μM
Outline: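 Bidirectional permeability measured over 2 h at 37° C, compound dosed at 3 μM in the donor compartment (apical for absorptive, basolateral for secretive) with plain buffer as receiver.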

IRAK4 = IRAK4 (Homo sapiens (Human), UniProt Q9NWZ3); test: IRAK4 Inhibition Assay; format: biochemical; settings: ATP 500 μM; IRAK4 0.6 nM
Chain of IRAK4 (Q9NWZ3 whole entry, species assumed): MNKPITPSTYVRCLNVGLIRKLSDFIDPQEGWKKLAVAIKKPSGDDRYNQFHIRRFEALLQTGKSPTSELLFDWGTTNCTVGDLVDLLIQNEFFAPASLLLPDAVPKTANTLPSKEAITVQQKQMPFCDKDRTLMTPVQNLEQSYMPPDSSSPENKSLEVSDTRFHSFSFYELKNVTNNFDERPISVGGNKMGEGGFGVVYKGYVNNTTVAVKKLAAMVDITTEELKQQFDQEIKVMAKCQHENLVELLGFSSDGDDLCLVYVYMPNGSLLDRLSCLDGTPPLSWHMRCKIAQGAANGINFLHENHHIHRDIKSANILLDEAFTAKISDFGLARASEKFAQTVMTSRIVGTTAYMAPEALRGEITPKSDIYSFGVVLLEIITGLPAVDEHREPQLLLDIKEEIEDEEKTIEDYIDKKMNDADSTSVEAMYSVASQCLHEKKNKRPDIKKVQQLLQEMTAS
Outline: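 Mobility-shift kinase assay: 0.6 nM IRAK4, 500 μM ATP, 1.5 μM fluorescent peptide, 60 min, room temperature. Percent inhibition was normalised between enzyme-free and DMSO-only wells.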

Row | Structure (SMILES) | EC50 [1] [nM] | Papp at 2 h, 3 µM [2] [×10⁻⁶ cm/s] | IC50 (IRAK4) [nM]
1 | CC(C)Nc1cc(-n2ncc3cc(C#N)cnc32)ncc1-c1cn(CCC(C)(C)O)nn1 [Example 128, 1-(5-(1-(3-hydroxy-3-methylbutyl)-1H-1,2,3-triazol-4-yl)-4-(isopropylamino)pyridin-2-yl)-1H-pyrazolo[3,4-b]pyridine-5-carbonitrile] | 340 | 5 | 1
2 | CC(C)Nc1cc(-n2cnc3cc(C#N)cnc32)ncc1-c1cn(C2CN(C)C2)nn1 [Example 152, 3-(4-(isopropylamino)-5-(1-(1-methylazetidin-3-yl)-1H-1,2,3-triazol-4-yl)pyridin-2-yl)-3H-imidazo[4,5-b]pyridine-6-carbonitrile] | 750 | 15.8 | 4
3 | CC(=O)N1CC(n2cc(-c3cnc(-n4ccc5cc(C#N)cnc54)cc3NC(C)C)nn2)C1 [Example 162, 1-(5-(1-(1-acetylazetidin-3-yl)-1H-1,2,3-triazol-4-yl)-4-(isopropylamino)pyridin-2-yl)-1H-pyrrolo[2,3-b]pyridine-5-carbonitrile, TFA] | 440 | 17.1 | 4
4 | CC(C)Nc1cc(-n2ccc3cc(C#N)cnc32)ncc1-c1cn(CCN2CCOCC2)nn1 [Example 163, 1-(4-(isopropylamino)-5-(1-(2-morpholinoethyl)-1H-1,2,3-triazol-4-yl)pyridin-2-yl)-1H-pyrrolo[2,3-b]pyridine-5-carbonitrile, 2TFA] | 600 | 19.5 | 2
5 | CC(=O)Cn1cc(-c2cnc(-n3ncc4cc(C#N)cnc43)cc2NC(C)C)nn1 [Example 170, 1-(4-(isopropylamino)-5-(1-(2-oxopropyl)-1H-1,2,3-triazol-4-yl)pyridin-2-yl)-1H-pyrazolo[3,4-b]pyridine-5-carbonitrile] | 430 | 4.5 | 2
6 | CC(C)Nc1cc(-n2ncc3cc(C#N)cnc32)ncc1-c1cn([C@H]2CCN(C(=O)C(C)(C)C)C[C@H]2O)nn1 [Example 179, 1-(5-(1-((3R,4S)-3-hydroxy-1-pivaloylpiperidin-4-yl)-1H-1,2,3-triazol-4-yl)-4-(isopropylamino)pyridin-2-yl)-1H-pyrazolo[3,4-b]pyridine-5-carbonitrile] | 680 | 1.8 | 7
7 | CCOC(=O)N1CC[C@H](n2cc(-c3cnc(-n4ncc5cc(C#N)cnc54)cc3NC(C)C)nn2)[C@H](O)C1 [Example 180, (3R,4S)-ethyl 4-(4-(6-(5-cyano-1H-pyrazolo[3,4-b]pyridin-1-yl)-4-(isopropylamino)pyridin-3-yl)-1H-1,2,3-triazol-1-yl)-3-hydroxypiperidine-1-carboxylate] | 2140 | 3.2 | 11
8 | CC(C)Nc1cc(-n2ncc3cc(C#N)cnc32)ncc1-c1cn([C@H]2CCN(S(C)(=O)=O)C[C@H]2O)nn1 [Example 181, 1-(5-(1-((3R,4S)-3-hydroxy-1-(methylsulfonyl)piperidin-4-yl)-1H-1,2,3-triazol-4-yl)-4-(isopropylamino)pyridin-2-yl)-1H-pyrazolo[3,4-b]pyridine-5-carbonitrile] | 400 | < 1.5 | 7
9 | CC(C)Nc1cc(-n2ncc3cc(C#N)cnc32)ncc1-c1cn([C@@H]2CCN(S(C)(=O)=O)C[C@@H]2O)nn1 [Example 188, 1-(5-(1-((3S,4R)-3-hydroxy-1-(methylsulfonyl)piperidin-4-yl)-1H-1,2,3-triazol-4-yl)-4-(isopropylamino)pyridin-2-yl)-1H-pyrazolo[3,4-b]pyridine-5-carbonitrile] | 110 | < 1.5 | 18
10 | CC(C)Nc1cc(-n2ncc3cc(C#N)cnc32)ncc1-c1cn(CC(=O)N2CCNCC2)nn1 [Example 192, 1-(4-(isopropylamino)-5-(1-(2-oxo-2-(piperazin-1-yl)ethyl)-1H-1,2,3-triazol-4-yl)pyridin-2-yl)-1H-pyrazolo[3,4-b]pyridine-5-carbonitrile] | 150 | < 1.5 | 3
11 | CC(C)Nc1cc(-n2ncc3cc(C#N)cnc32)ncc1-c1cn([C@H]2CCCC[C@H]2O)nn1 [Example 216, 1-(5-(1-((1S,2R)-2-hydroxycyclohexyl)-1H-1,2,3-triazol-4-yl)-4-(isopropylamino)pyridin-2-yl)-1H-pyrazolo[3,4-b]pyridine-5-carbonitrile] | 1650 | 7.3 | 2
12 | CCCn1cc(-c2cnc(-n3ncc4cc(Cl)cnc43)cc2NC(C)C)nn1 [Example 218, 2-(5-chloro-1H-pyrazolo[3,4-b]pyridin-1-yl)-N-isopropyl-5-(1-propyl-1H-1,2,3-triazol-4-yl)pyridin-4-amine] | 2090 | 12.5 | 9

Other lines, results leading:

Row | EC50 [1] [nM] | Papp at 2 h, 3 µM [2] [×10⁻⁶ cm/s] | IC50 (IRAK4) [nM] | Structure (SMILES)
13 | 360 | < 1.5 | 3 | [2H]C([2H])([2H])C(=O)N1CC(n2cc(-c3cnc(-n4ncc5cc(C#N)cnc54)cc3NC(C)C)nn2)C1 [Example 140, 1-(5-(1-(1-trideuteroacetylazetidin-3-yl)-1H-1,2,3-triazol-4-yl)-4-(isopropylamino)pyridin-2-yl)-1H-pyrazolo[3,4-b]pyridine-5-carbonitrile]
14 | 450 | 9.1 | 2 | CC(C)Nc1cc(-n2ncc3cc(C#N)cnc32)ncc1-c1cn(C2CN(C(C)C)C2)nn1 [Example 150, 1-(4-(isopropylamino)-5-(1-(1-isopropylazetidin-3-yl)-1H-1,2,3-triazol-4-yl)pyridin-2-yl)-1H-pyrazolo[3,4-b]pyridine-5-carbonitrile]
15 | 150 | < 1.5 | 4 | CC(=O)N1CC(n2cc(-c3cnc(-n4ncc5cc(C#N)cnc54)cc3NC(C)C)nn2)C1 [Example 154, 1-(5-(1-(1-acetylazetidin-3-yl)-1H-1,2,3-triazol-4-yl)-4-(isopropylamino)pyridin-2-yl)-1H-pyrazolo[3,4-b]pyridine-5-carbonitrile]
16 | 280 | < 1.5 | 6 | CC(=O)N1CCC(n2cc(-c3cnc(-n4ncc5cc(C#N)cnc54)cc3NC(C)C)nn2)C1 (stereo not drawn) [Example 157, 1-(5-(1-(1-acetylpyrrolidin-3-yl)-1H-1,2,3-triazol-4-yl)-4-(isopropylamino)pyridin-2-yl)-1H-pyrazolo[3,4-b]pyridine-5-carbonitrile]
17 | 130 | < 1.5 | 4 | CC(=O)N1CCC(n2cc(-c3cnc(-n4ncc5cc(C#N)cnc54)cc3NC(C)C)nn2)CC1 [Example 159, 1-(5-(1-(1-acetylpiperidin-4-yl)-1H-1,2,3-triazol-4-yl)-4-(isopropylamino)pyridin-2-yl)-1H-pyrazolo[3,4-b]pyridine-5-carbonitrile]
18 | 290 | 1.8 | 1 | CC(=O)N1CCCC(n2cc(-c3cnc(-n4ncc5cc(C#N)cnc54)cc3NC(C)C)nn2)C1 (stereo not drawn) [Example 160, 1-(5-(1-(1-acetylpiperidin-3-yl)-1H-1,2,3-triazol-4-yl)-4-(isopropylamino)pyridin-2-yl)-1H-pyrazolo[3,4-b]pyridine-5-carbonitrile]
19 | 530 | < 1.5 | 6 | CC(=O)N1CC[C@H](n2cc(-c3cnc(-n4ncc5cc(C#N)cnc54)cc3NC(C)C)nn2)[C@H](O)C1 [Example 178, 1-(5-(1-((3R,4S)-1-acetyl-3-hydroxypiperidin-4-yl)-1H-1,2,3-triazol-4-yl)-4-(isopropylamino)pyridin-2-yl)-1H-pyrazolo[3,4-b]pyridine-5-carbonitrile]
20 | 390 | < 1.5 | 16 | CC(=O)N1CC[C@@H](n2cc(-c3cnc(-n4ncc5cc(C#N)cnc54)cc3NC(C)C)nn2)[C@@H](O)C1 [Example 191, 1-(5-(1-((3S,4R)-1-acetyl-3-hydroxypiperidin-4-yl)-1H-1,2,3-triazol-4-yl)-4-(isopropylamino)pyridin-2-yl)-1H-pyrazolo[3,4-b]pyridine-5-carbonitrile]
21 | 450 | < 1.5 | 2 | CC(C)Nc1cc(-n2ncc3cc(C#N)cnc32)ncc1-c1cn(C2CCNCC2)nn1 [Example 195, 1-(4-(isopropylamino)-5-(1-(piperidin-4-yl)-1H-1,2,3-triazol-4-yl)pyridin-2-yl)-1H-pyrazolo [3,4-b]pyridine-5-carbonitrile]
22 | 1210 | 4.7 | 4 | CC(C)Nc1cc(-n2ncc3cc(C#N)cnc32)ncc1-c1cn(C2CCN(S(C)(=O)=O)CC2)nn1 [Example 196, 1-(4-(isopropylamino)-5-(1-(1-(methylsulfonyl)piperidin-4-yl)-1H-1,2,3-triazol-4-yl)pyridin-2-yl)-1H-pyrazolo[3,4-b]pyridine-5-carbonitrile]
23 | 1750 | 19.3 | 5 | CC(C)Nc1cc(-n2ncc3cc(C#N)cnc32)ncc1-c1cn(C(C)C)nn1 [Example 213, 1-(5-(1-isopropyl-1H-1,2,3-triazol-4-yl)-4-(isopropylamino)pyridin-2-yl)-1H-pyrazolo[3,4-b]pyridine-5-carbonitrile]
24 | 920 | 13.6 | 7 | CC(C)Nc1cc(-n2ncc3cc(C#N)cnc32)ncc1-c1cn(C2CCOC2)nn1 (stereo not drawn) [Example 214, 1-(4-(isopropylamino)-5-(1-(tetrahydrofuran-3-yl)-1H-1,2,3-triazol-4-yl)pyridin-2-yl)-1H-pyrazolo[3,4-b]pyridine-5-carbonitrile]
